EC50 and fold survival data for three compounds are collected here from PubChem BioAssay AID1259347.

Assay [1] deals with HCT116 Ad-hTR-mut infected, survival, MTT 4 d. Nature of the assay: survival after telomere uncapping, modulators, dose response, cell-based, HCT116, Ad-hTR-mut infection, MTT (AID 1259347).
Experiment in assay [2]: as above
Particulars: HCT116 Ad-hTR-mut infected, survival, MTT 4 d; measured here: second series; at 10 µM; stronger effect = higher value.

One may read the EC50 as the concentration at which the effect is half-maximal.

Active and inactive are the calls of the source.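 Rule for the calls: active = compounds raising absorbance, a cell survival measure, over 1.5-fold at the top dose, rising with dose; inactive = the rest.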

`C/C(=C\C(=O)Nc1ccccc1C(=O)O)c1ccc2ccccc2c1`: the EC50 in assay [1] was > 0.1 µM (inactive).

With `Cc1ccc(C(=O)Nc2ccc(S(=O)(=O)O)c3cc(S(=O)(=O)O)cc(S(=O)(=O)O)c23)cc1NC(=O)c1cccc(NC(=O)Nc2cccc(C(=O)Nc3cc(C(=O)Nc4ccc(S(=O)(=O)O)c5cc(S(=O)(=O)O)cc(S(=O)(=O)O)c45)ccc3C)c2)c1`, the fold survival in assay [2] is 2.65. For the same compound, the EC50 in assay [1] is less than 10 µM.

In assay [2], `Cc1nc2cc(-c3ccc(Br)cc3)nn2c(C)c1CCC(=O)O` displayed a fold survival of 1.44. Besides, in assay [1], the EC50 was less than 10 µM.
